From ChEMBL document CHEMBL1201862, “PubChem BioAssay data set” (2004)
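Method: 48-hour compound exposure of cells in 96-well plates, five concentrations, linear interpolation of endpoints. The concentration for 50% growth inhibition is given as GI50.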 The source made the active and inactive calls. Rule as the data show it: active = GI50 up to about 1.1 µM and inactive = higher.

What was measured:
Assay in all cases: DTP human tumour cell line panel, 48 h
[1] = system: HCC 2998
[2] = system: SR
[3] = system: OVCAR-8
[4] = system: SK-MEL-2
[5] = system: CAKI-1
[6] = system: KM12
[7] = system: SW-620
[8] = system: SF-295
[9] = system: OVCAR-3
[10] = system: SK-MEL-5
[11] = system: M14
[12] = system: UACC-62
[13] = system: HL-60
[14] = system: RXF 393
[15] = system: HCT-116
[16] = system: NCI-H23
[17] = system: HOP-92

Structure (SMILES) | GI50 [1] | GI50 [2] | GI50 [3] | GI50 [4] | GI50 [5] | GI50 [6] | GI50 [7] | GI50 [8] | GI50 [9] | GI50 [10] | GI50 [11] | GI50 [12] | GI50 [13] | GI50 [14] | GI50 [15] | GI50 [16] | GI50 [17]
N#CCCCCCOCCOCCOCCOCCOCCCCCC#N | > 100 µM (inactive) | > 100 µM (inactive) | > 100 µM (inactive) | > 100 µM (inactive) | > 100 µM (inactive) | > 100 µM (inactive) | > 100 µM (inactive) | > 100 µM (inactive) | 97.7 µM (inactive) | > 100 µM (inactive) | > 100 µM (inactive) | 68.7 µM (inactive) | > 100 µM (inactive) | > 100 µM (inactive) | > 100 µM (inactive) | > 100 µM (inactive) | 
COc1cc2c(c(OC)c1OC)-c1ccc(SC)c(=O)cc1[C@@H](NC(=O)c1cccc([N+](=O)[O-])c1)CC2 | 0.0207 µM (active) |  | 0.024 µM (active) |  | 0.049 µM (active) | < 0.01 µM (active) | 0.0276 µM (active) | 0.0208 µM (active) | 0.0191 µM (active) | 0.0179 µM (active) | 0.0154 µM (active) | 0.0292 µM (active) | < 0.01 µM (active) |  | 0.0174 µM (active) | < 0.01 µM (active) | 
COCC(OC)C(CC=C(C#N)C#N)OC (stereo not drawn) | > 100 µM (inactive) | > 100 µM (inactive) | > 100 µM (inactive) | > 100 µM (inactive) | > 100 µM (inactive) | > 100 µM (inactive) | > 100 µM (inactive) | > 100 µM (inactive) | > 100 µM (inactive) | > 100 µM (inactive) | > 100 µM (inactive) | > 100 µM (inactive) | > 100 µM (inactive) |  | > 100 µM (inactive) | > 100 µM (inactive) | > 100 µM (inactive)
CCN(CC)CCNc1ccc2nnn3c4ccc(OC)cc4c(=O)c1c23 |  | 1.59 µM (inactive) | 4.31 µM (inactive) | 14.2 µM (inactive) | 12.2 µM (inactive) | 3.27 µM (inactive) | 3.58 µM (inactive) | 5.14 µM (inactive) | 13.5 µM (inactive) | 12.5 µM (inactive) | 10.5 µM (inactive) | 12.9 µM (inactive) | 3.94 µM (inactive) |  | 2.16 µM (inactive) | 8.49 µM (inactive) | 6.07 µM (inactive)
CC1(Br)CC2OC3(Br)C=CC(C)(O)C2(CC1=O)C3(C)C (stereo not drawn) | > 100 µM (inactive) | 82.4 µM (inactive) | > 100 µM (inactive) | > 100 µM (inactive) | > 100 µM (inactive) | > 100 µM (inactive) | > 100 µM (inactive) | > 100 µM (inactive) | > 100 µM (inactive) | > 100 µM (inactive) | > 100 µM (inactive) | 99.1 µM (inactive) |  |  | > 92 µM (inactive) | > 100 µM (inactive) | 64.4 µM (inactive)
CSc1nc(-c2ccccc2)c2c(n1)-c1ccccc1CC2 |  | > 100 µM (inactive) | > 100 µM (inactive) | > 100 µM (inactive) | > 100 µM (inactive) | > 100 µM (inactive) | > 100 µM (inactive) | > 100 µM (inactive) | > 100 µM (inactive) | > 100 µM (inactive) | > 100 µM (inactive) | > 100 µM (inactive) | > 100 µM (inactive) | 34.4 µM (inactive) | > 100 µM (inactive) | > 100 µM (inactive) | > 100 µM (inactive)
O=C(Cc1ccccc1)NN1C(=O)C(Cl)C1c1cc(Br)cc(Br)c1O (stereo not drawn) | 13.8 µM (inactive) | 0.794 µM (active) | 8.87 µM (inactive) | 15.1 µM (inactive) | 25.8 µM (inactive) | 40.1 µM (inactive) | 7.14 µM (inactive) | 12.3 µM (inactive) | 2.71 µM (inactive) | 13.6 µM (inactive) | 14.8 µM (inactive) | 10.3 µM (inactive) | 2.13 µM (inactive) | 17.7 µM (inactive) | 3.21 µM (inactive) | 12.2 µM (inactive) | 
COc1ccc2c(c1)CCc1c(-c3n[nH]c4c3CCc3cc(OC)ccc3-4)n[nH]c1-2 | > 100 µM (inactive) | 38.1 µM (inactive) | 37.8 µM (inactive) | 43.9 µM (inactive) | 24.4 µM (inactive) | 33.9 µM (inactive) | 17.9 µM (inactive) | 17.2 µM (inactive) |  | 30.8 µM (inactive) | 25.9 µM (inactive) | 23.5 µM (inactive) | 27.5 µM (inactive) |  | 34.1 µM (inactive) | 79.4 µM (inactive) | 30.8 µM (inactive)
CCOC(=O)CC1=N/C(=N/C(=N)N[N+](=O)[O-])SC1 | > 100 µM (inactive) |  | > 100 µM (inactive) | > 100 µM (inactive) | > 100 µM (inactive) | > 100 µM (inactive) | > 100 µM (inactive) | > 100 µM (inactive) | > 100 µM (inactive) | > 100 µM (inactive) | > 100 µM (inactive) | > 100 µM (inactive) | > 100 µM (inactive) | > 100 µM (inactive) | > 100 µM (inactive) | > 100 µM (inactive) | > 100 µM (inactive)
